Converted amounts (≈) assume the structure as drawn. Read-outs that look alike come from different tables or passages of the source.
Key:
[1] = test system: C. difficile NAP1/027 CD26A54_S; test: MIC broth microdilution, C. difficile CD26A54_S; assay type: cell-based, Clostridium difficile; settings: for MIC: Clostridioides difficile
[2] = test system: C. difficile VPI10463 ATCC 43255; test: MIC broth microdilution, C. difficile VPI 10463; assay type: cell-based, Clostridium difficile; settings: VPI 10463, MtzS, 24 h, median of at least n = 4; for MIC: Clostridioides difficile, ATCC 43255 / ATCC BAA-1803
Procedure: (§1) All compounds were tested for activity against a set of anaerobic C. difficile bacteria (630 ATCC BAA-1382, NAP1/027 M7404, NAP1/027 ATCC BAA-1803, VPI10463 ATCC 43255, CD26A54_S and CD26A54_R) and representative ESKAPE pathogens S. aureus (MRSA ATCC 43300), E. coli (ATCC 25922), K. pneumoniae (ATCC 700603), A. baumannii (ATCC 19606) and P. aeruginosa (ATCC 27853) using a standard broth microdilution assay. Selected compounds were tested for activity against H. pylori strains (26695, and clinical isolates MtzS 13/25, MtzR 98/285 and MtzR 13/61) using agar plate dilution, and for antimicrobial activity against […] Gram-positive bacterial strains: Enterococcus faecalis (VanA clinical isolate), Enterococcus faecium (MDR VanA ATCC 51559), Streptococcus pneumoniae (MDR ATCC 700677), S. aureus (MRSA ATCC 43300, MRSA clinical isolate, MRSA/DRSA clinical isolate, GISA NARSA NRS 1, GISA NARSA NRS 17, VRSA NARSA VRS1, VRSA NARSA VRS4 and VRSA NARSA VRS10) using broth microdilution. C. difficile strains were grown at 37 °C in a COY anaerobic chamber (5% H2, 10% CO2, 85% N2). H. pylori strains were grown at 37 °C under a microaerobic atmosphere (5% O2, 10% CO2). All facultative anaerobic bacteria were grown at 37 °C with normal atmospheric oxygen levels. All experiments were performed in duplicate with metronidazole, vancomycin, linezolid or colistin as positive controls for relevant strains (see Table 1). Positive growth control of bacteria and DMSO as well as a negative control of only media were included for every plate. Full assay details are provided in the supplementary information.
(§2) C. difficile ATCC BAA-1382, ATCC BAA-1803, ATCC 43255 and M7404 heat shocked spore stocks (10 µL) were transferred into the anaerobic chamber and 10 µL streaked onto pre-reduced (at least 2.5 hr in anaerobic chamber) BHIS agar plates supplemented with 0.1% w/v sodium taurocholate (BHIS(TA)). Plates were incubated for 24 hours prior to assay to give colonies of size 1-3mm diameter with characteristic uneven borders.
(§3) The minimum inhibition concentration was determined according to the CLSI Methods with modifications in broth and inoculum for C. difficile according to Babakhani et al.^7,8 Briefly, compounds were prepared to 20X final concentration in 100% water, 60% DMSO and 40% water or 60% DMSO and 40% media. The compounds along with standard antibiotics were serially diluted two-fold across the wells of 96-well non-binding surface plates (Non binding surface, Corning). The plates were placed in the anaerobic chamber overnight to reduce. C. difficile bacteria from BHIS(TA) agar plates were cultured anaerobically in BHIS at 37 °C overnight. A sample of culture was then diluted 40-fold in BHIS broth and incubated at 37 °C for approximately 4.5 hrs. The resultant mid-log phase culture (OD600= 0.5-0.6) was diluted to the final concentration of ~1×10^6 CFU/mL, then 50 µL was added to each well of the compound-containing 96-well plates. This gave final cell concentration of 5×10^5 CFU/mL, final volume 100 µL and 3% maximum DMSO concentration. Compound concentration was typically from 64 to 0.03 µg/mL. An antibiotic standard was included on each 96 well plate as well as a positive growth control (no compound) and sterility control (no bacteria). All the plates were covered and incubated at 37 °C for 24 h. MICs were the lowest concentration showing no visible growth.

[3] = test system: G. lamblia 713-M3 (713M); test: ATP-bioluminescence growth and survival assay, metronidazole resistant G. lamblia 713-M3; assay type: cell-based; settings: Giardia duodenalis, read-out: EC50 G. lamblia 713M
Procedure: Compounds were tested for antiparasitic activity against E. histolytica (HM1:1MSS strain) and G. lamblia (WB, BRIS/87/HEPU/713 (713), BRIS/83/HEPU/106 (106) and the metronidazole resistant syngeneic line 713-M3 [[15,16]]) using an ATP-bioluminescence based screen for cell growth and survival [[17,18]]. Assay plates were inoculated with trophozoites (5 × 10^3 parasites/well) and incubated in the GasPak™ EZ Anaerobe Gas Generating Pouch Systems (VWR, West Chester, PA) to maintain anaerobic conditions throughout the incubation period. The assays were performed in triplicate using the CellTiter-Glo Luminescent Cell Viability Assay. Metronidazole was used as a positive control.
Trophozoites of E. histolytica strain HM1:IMSS and G. lamblia strains WB, BRIS/87/HEPU/713 (713),^10 BRIS/83/HEPU/106 (106)^11 and the metronidazole resistant syngenic line 713-M3^10,11 were axenically maintained in TYI-S-33 medium supplemented with penicillin (100 U/ml), streptomycin (100 µg/ml).^12 E. histolytica and G. lamblia trophozoites were counted using a particle counter (Beckman Coulter, Fullerton, CA). All experiments were performed using trophozoites harvested during the logarithmic phase of growth.
A three-fold serial dilution was then performed yielding a concentration range 0.25-625 µM. From this dilution plate, 4 µL were transferred into the 96-well screen plates followed by addition of 96 µL of trophozoites (5,000 parasites) to yield a final 8-point concentration range spanning 0.01- 25 µM. Assay plates were incubated for 48 h at 37 °C in the GasPak^TM EZ Anaerobe Gas Generating Pouch Systems (VWR, West Chester, PA) to maintain anaerobic condition throughout the incubation period. The assays were performed in triplicate using the CellTiter-Glo Luminescent Cell Viability Assay.^13

[4] = test system: C. difficile 630 ATCC BAA-1382; test: MIC broth microdilution, C. difficile 630; assay type: cell-based, Clostridium difficile; settings: 24 h, median of at least n = 4; for MIC: Clostridioides difficile, ATCCBAA1382, MtzS
Procedure: as §1, §2, §3

[5] = test system: C. difficile NAP1/027 CD26A54_R; test: MIC broth microdilution, metronidazole resistant C. difficile CD26A54_R; assay type: cell-based, Clostridium difficile; settings: for MIC: Clostridioides difficile
[6] = 24 hr incubation, read-out: MIC C. difficile NAP1/027 CD26A54_S 24 hr
[7] = CD26A54_S, MtzS (intermediary), 48 h growth, read-out: MIC C. difficile NAP1/027 CD26A54_S 48 h
[8] = 24 hr incubation, read-out: MIC C. difficile NAP1/027 CD26A54_R 24 hr
[9] = CD26A54_R, MtzR, 48 h growth, BHIS broth, n = 8, read-out: MIC C. difficile NAP1/027 CD26A54_R 48 h

| SMILES | MIC [1, 6] [µg/mL] | MIC [1, 7] [µg/mL] | MIC [2] [µg/mL] | EC50 [3] [µM] | MIC [4] [µg/mL] | MIC C. difficile NAP1/027 CD26A54_R 24 hr ([5]; 24 hr incubation) [µg/mL] | MIC [5, 8] [µg/mL] | MIC [5, 9] [µg/mL] | MIC C. difficile NAP1/027 CD26A54_S 24 hr ([1]; 24 hr incubation) [µg/mL] | MIC C. difficile NAP1/027 CD26A54_S 48 h ([1]; CD26A54_S, MtzS (intermediary), 48 h growth) [µg/mL] | MIC C. difficile VPI 10463 [2] [µg/mL] | MIC C. difficile 630 ([4]; MtzS) [µg/mL] | MIC C. difficile NAP1/027 CD26A54_R 48 h ([5]; CD26A54_R, MtzR, 48 h growth, BHIS broth, n = 8) [µg/mL] |
| --- | --- | --- | --- | --- | --- | --- | --- | --- | --- | --- | --- | --- | --- |
| Cc1ncc([N+](=O)[O-])n1CCO [Compound 1, metronidazole] | 1 (≈ 5.84 µM) | 1 (≈ 5.84 µM) | 0.5 (≈ 2.92 µM) | 17 | 0.5 (≈ 2.92 µM) | 2 (≈ 11.7 µM) | 2 (≈ 11.7 µM) | 4 (≈ 23.4 µM) | – | – | – | – | – |
| Cc1ncc([N+](=O)[O-])n1CCN=[N+]=[N-] [Compound 3, 1-(2-azidoethyl)-2-methyl-5-nitro-1H-imidazole] | – | – | – | – | – | 4 (≈ 20.4 µM) | – | – | 2 (≈ 10.2 µM) | 2 (≈ 10.2 µM) | 0.5 (≈ 2.55 µM) | 1 (≈ 5.1 µM) | 8 (≈ 40.8 µM) |
| Cc1ncc([N+](=O)[O-])n1CCn1cc(-c2ccccc2)nn1 [Compound 4a, 1-(2-(2-methyl-5-nitro-1H-imidazol-1-yl)ethyl)-4-phenyl-1H-1,2,3-triazole] | 1 (≈ 3.35 µM) | 1 (≈ 3.35 µM) | 0.25 to 0.5 (≈ 0.838 to 1.68 µM) | 2.3 | 0.5 (≈ 1.68 µM) | – | 2 (≈ 6.7 µM) | 2 (≈ 6.7 µM) | – | – | – | – | – |
| Cc1ncc([N+](=O)[O-])n1CCn1cc(Cn2cccn2)nn1 [Compound 4g, 1-(2-(2-methyl-5-nitro-1H-imidazol-1-yl)ethyl)-4-((1H-pyrazol-1-yl)methyl)-1H-1,2,3-triazole] | 2 (≈ 6.62 µM) | 2 (≈ 6.62 µM) | 1 (≈ 3.31 µM) | – | 1 (≈ 3.31 µM) | – | 4 (≈ 13.2 µM) | 4 (≈ 13.2 µM) | – | – | – | – | – |
| Cc1ncc([N+](=O)[O-])n1CCn1cc(-c2cncnc2)nn1 [Compound 4i, 1-(2-(2-methyl-5-nitro-1H-imidazol-1-yl)ethyl)-4-(5-pyrimidinyl)-1H-1,2,3-triazole] | 1 (≈ 3.33 µM) | 1 (≈ 3.33 µM) | 1 (≈ 3.33 µM) | – | 1 (≈ 3.33 µM) | – | 2 (≈ 6.66 µM) | 4 (≈ 13.3 µM) | – | – | – | – | – |
| Cc1ncc([N+](=O)[O-])n1CCn1cc(-c2ncccn2)nn1 [Compound 4j, 1-(2-(2-methyl-5-nitro-1H-imidazol-1-yl)ethyl)-4-(2-pyrimidinyl)-1H-1,2,3-triazole] | 2 (≈ 6.66 µM) | 2 to 4 (≈ 6.66 to 13.3 µM) | 2 (≈ 6.66 µM) | – | 2 (≈ 6.66 µM) | – | 4 (≈ 13.3 µM) | 4 (≈ 13.3 µM) | – | – | – | – | – |
| Cc1ncc([N+](=O)[O-])n1CCn1cc(CN2CCS(=O)(=O)CC2)nn1 [Compound 4o, 1-(2-(2-methyl-5-nitro-1H-imidazol-1-yl)ethyl)-4-((1,1-dioxothiomorpholin-4-yl)methyl)-1H-1,2,3-triazole] | > 64 | > 64 | > 64 | – | > 64 | – | > 64 | > 64 | – | – | – | – | – |
| Cc1ncc([N+](=O)[O-])n1CCn1cc(CCO)nn1 [Compound 4p, 1-(2-(2-methyl-5-nitro-1H-imidazol-1-yl)ethyl)-4-(2-hydroxyethyl)-1H-1,2,3-triazole] | 8 (≈ 30 µM) | 8 (≈ 30 µM) | 8 (≈ 30 µM) | – | 8 (≈ 30 µM) | – | 8 to 16 (≈ 30 to 60.1 µM) | 16 (≈ 60.1 µM) | – | – | – | – | – |
| Cc1ncc([N+](=O)[O-])n1CCn1cc(CO)nn1 [Compound 4q, 1-(2-(2-methyl-5-nitro-1H-imidazol-1-yl)ethyl)-4-(hydroxymethyl)-1H-1,2,3-triazole] | 16 (≈ 63.4 µM) | 16 to 32 (≈ 63.4 to 127 µM) | 16 (≈ 63.4 µM) | – | 16 (≈ 63.4 µM) | – | 16 (≈ 63.4 µM) | 16 (≈ 63.4 µM) | – | – | – | – | – |
| Cc1ncc([N+](=O)[O-])n1CCn1cc(CCC(=O)O)nn1 [Compound 4r, sodium 1-(2-(2-methyl-5-nitro-1H-imidazol-1-yl)ethyl)-4-(carboxyethyl)-1H-1,2,3-triazole] | > 64 | > 64 | > 64 | – | > 64 | – | > 64 | > 64 | – | – | – | – | – |
| Cc1ncc([N+](=O)[O-])n1CCn1cc(C(=O)O)nn1 [Compound 4s, 1-(2-(2-methyl-5-nitro-1H-imidazol-1-yl)ethyl)-4-(carboxy)-1H-1,2,3-triazole] | > 64 | > 64 | 64 (≈ 240 µM) | – | 64 (≈ 240 µM) | – | > 64 | > 64 | – | – | – | – | – |
| Cc1ncc([N+](=O)[O-])n1CCn1cc(CN)nn1.O=C(O)C(F)(F)F [Compound 4t, 1-(2-(2-methyl-5-nitro-1H-imidazol-1-yl)ethyl)-4-(aminomethyl)-1H-1,2,3-triazole trifluoroacetate salt] | > 64 | > 64 | > 64 | – | > 64 | – | > 64 | > 64 | – | – | – | – | – |

From publication PMC4550478, “Metronidazole-triazole conjugates: Activity against Clostridium difficile and parasites” (European Journal of Medicinal Chemistry, 2015)
